Experimental data taken from US20220273659A1, “HETEROCYCLIC COMPOUNDS AS KINASE INHIBITORS” (NUVATION BIO INC., priority 2019, published 2022).

Experiments:
[1] = target: T1, CDK9 (cyclin K) (Homo sapiens, UniProt P50750); assay: LanthaScreen Eu Kinase Binding Assay
T1 construct: purchased Invitrogen Life Technologies (assay service)
Experimental: 0.16 μL of 100×test compound in 100% DMSO (at specific solutions) were mixed with 3.84 μL of Kinase Buffer (50 mM HEPES pH 7.5, 0.01% BRIJ-35, 10 mM MgCl2, 1 mM EGTA), 8.0 μL of 2× Kinase (5 nM)/Antibody (Eu-anti-His, 2 nM) Mixture and 4.0 μL of 4×Tracer (Tracer 236, 100 nM). The plates were shaken for 30 seconds, and incubated for 60 minutes at room temperature. The plates were read on fluorescence plate reader with Dual emission at 615 nm and 665 nm.
The following equations were used for LanthaScreen Eu Kinase Binding Assay Data Analysis. Percent inhibition (100-% activity) was fitted to the “four-parameter logistic model” in XLfit for determination of IC50 values.

[2] = target: T2, CDK12 (cyclin K) (Homo sapiens, UniProt Q9NYV4); assay: KinaseProfiler radiometric protein kinase assay; assay type: biochemical
T2 construct: purchased Eurofins Pharma Discovery (assay service)
Experimental: IC50 values of compounds against CDK12 (cyclin K) were determined by KinaseProfiler™ radiometric protein kinase assay at Eurofins Pharma Discovery (Dundee, UK). Compounds were prepared to 50× final assay concentration in 100% DMSO. This working stock of the compound was added to the assay well as the first component in each reaction. CDK12/Cyclin K was diluted in buffer (20 mM TRIS, 0.2 mM EDTA, 0.1%-mercaptoethanol, 0.01% Brij-35, 5% glycerol, mg/ml BSA) prior to addition to the reaction mix. CDK12/Cyclin K was incubated with 20 mM Tris/HCl pH 8.5, 0.2 mM EDTA, 300 μM SRSRSRSRSRSRSR, 10 mM Magnesium acetate and [γ-^33P-ATP] (specific activity and concentration as required). The reaction was initiated by the addition of the Mg/ATP mix. After incubation for 120 minutes at room temperature, the reaction was stopped by the addition of phosphoric acid to a concentration of 0.5%. 10 μl of the stopped reaction was spotted onto a P30 filtermat and washed four times for 4 minutes in 0.425% phosphoric acid and once in methanol prior to drying and scintillation counting. Results were calculated as a percentage of the mean kinase activity in positive control samples. Data were fitted in XLfit for determination of IC50 values.

T1 sequence (P50750 whole entry): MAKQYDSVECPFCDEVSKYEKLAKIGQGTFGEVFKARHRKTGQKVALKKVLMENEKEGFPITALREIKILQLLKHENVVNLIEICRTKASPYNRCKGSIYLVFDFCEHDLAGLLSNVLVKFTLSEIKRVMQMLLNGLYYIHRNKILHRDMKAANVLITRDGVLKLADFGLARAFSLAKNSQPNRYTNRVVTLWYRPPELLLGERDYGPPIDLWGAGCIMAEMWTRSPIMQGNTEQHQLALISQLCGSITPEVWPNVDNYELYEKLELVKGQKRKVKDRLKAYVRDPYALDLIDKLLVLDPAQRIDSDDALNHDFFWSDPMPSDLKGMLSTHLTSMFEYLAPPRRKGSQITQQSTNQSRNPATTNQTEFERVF
T1 sequence (O75909 whole entry partner): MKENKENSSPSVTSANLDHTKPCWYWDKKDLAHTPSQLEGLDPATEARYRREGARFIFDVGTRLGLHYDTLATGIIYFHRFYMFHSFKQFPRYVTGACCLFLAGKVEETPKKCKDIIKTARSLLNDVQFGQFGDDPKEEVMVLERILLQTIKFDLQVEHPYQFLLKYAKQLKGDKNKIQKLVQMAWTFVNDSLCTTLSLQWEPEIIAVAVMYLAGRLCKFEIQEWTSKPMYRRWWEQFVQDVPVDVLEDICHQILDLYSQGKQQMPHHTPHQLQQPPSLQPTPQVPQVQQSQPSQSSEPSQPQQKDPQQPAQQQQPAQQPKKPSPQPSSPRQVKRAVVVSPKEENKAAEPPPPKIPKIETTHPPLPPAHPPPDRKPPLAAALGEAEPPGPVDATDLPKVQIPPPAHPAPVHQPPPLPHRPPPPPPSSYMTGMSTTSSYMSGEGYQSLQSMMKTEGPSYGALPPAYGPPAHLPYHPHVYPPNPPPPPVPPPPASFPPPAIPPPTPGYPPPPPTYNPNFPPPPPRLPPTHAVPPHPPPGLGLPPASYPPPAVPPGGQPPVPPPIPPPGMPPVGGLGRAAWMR
T2 sequence (Q9NYV4 whole entry): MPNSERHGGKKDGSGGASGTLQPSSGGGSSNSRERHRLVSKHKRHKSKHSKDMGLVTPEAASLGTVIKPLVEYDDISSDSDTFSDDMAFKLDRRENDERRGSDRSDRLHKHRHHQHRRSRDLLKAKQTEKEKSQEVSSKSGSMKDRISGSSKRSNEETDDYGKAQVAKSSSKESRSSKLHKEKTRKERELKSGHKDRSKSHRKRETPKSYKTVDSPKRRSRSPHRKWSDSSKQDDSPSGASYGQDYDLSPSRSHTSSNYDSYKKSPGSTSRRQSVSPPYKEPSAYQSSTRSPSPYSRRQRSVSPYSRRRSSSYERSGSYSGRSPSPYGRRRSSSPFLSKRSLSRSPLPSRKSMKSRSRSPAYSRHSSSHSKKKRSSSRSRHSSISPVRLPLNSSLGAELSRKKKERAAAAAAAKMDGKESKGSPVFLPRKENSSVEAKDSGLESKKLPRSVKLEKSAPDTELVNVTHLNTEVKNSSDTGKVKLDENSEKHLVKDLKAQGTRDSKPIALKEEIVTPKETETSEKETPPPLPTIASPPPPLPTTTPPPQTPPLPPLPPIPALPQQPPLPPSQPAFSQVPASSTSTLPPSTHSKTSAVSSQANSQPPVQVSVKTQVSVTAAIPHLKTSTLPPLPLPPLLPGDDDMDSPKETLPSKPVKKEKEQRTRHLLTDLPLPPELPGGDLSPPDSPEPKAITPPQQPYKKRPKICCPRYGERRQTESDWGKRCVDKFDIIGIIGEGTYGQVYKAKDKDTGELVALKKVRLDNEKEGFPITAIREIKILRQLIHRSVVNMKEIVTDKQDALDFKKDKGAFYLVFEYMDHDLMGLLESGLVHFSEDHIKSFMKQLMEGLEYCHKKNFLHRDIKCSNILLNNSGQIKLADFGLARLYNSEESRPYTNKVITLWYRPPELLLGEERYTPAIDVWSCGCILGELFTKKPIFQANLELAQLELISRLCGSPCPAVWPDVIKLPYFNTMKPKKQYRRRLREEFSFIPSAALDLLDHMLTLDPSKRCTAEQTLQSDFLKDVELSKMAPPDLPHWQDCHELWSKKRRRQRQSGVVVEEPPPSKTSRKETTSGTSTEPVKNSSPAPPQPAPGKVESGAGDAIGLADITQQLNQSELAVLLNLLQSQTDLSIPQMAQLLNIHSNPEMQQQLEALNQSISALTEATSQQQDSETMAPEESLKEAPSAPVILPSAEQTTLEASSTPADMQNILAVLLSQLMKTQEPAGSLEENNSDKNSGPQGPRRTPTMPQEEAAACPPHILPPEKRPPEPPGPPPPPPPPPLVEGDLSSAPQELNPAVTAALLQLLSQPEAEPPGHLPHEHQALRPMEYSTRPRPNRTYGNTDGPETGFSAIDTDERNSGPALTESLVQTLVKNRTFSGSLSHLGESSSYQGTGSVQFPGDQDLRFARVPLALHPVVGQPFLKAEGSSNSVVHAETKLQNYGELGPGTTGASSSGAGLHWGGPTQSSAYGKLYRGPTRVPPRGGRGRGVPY
T2 sequence (O75909 whole entry partner): as the sequence (O75909 whole entry partner) above

SMILES: N#Cc1cc2cnc(Nc3ccc4c(c3)CCNC4)nc2n(C2CCCC2)c1=O [Compound No. 31, 8-cyclopentyl-7-oxo-2-((1,2,3,4-tetrahydroisoquinolin-6-yl)amino)-7,8-dihydropyrido[2,3-d]pyrimidine-6-carbonitrile]
- IC50 [1]: 0.02 µM
- IC50 [2]: > 10 µM
